Measurements taken from patent US20110105565A1, “WATER SOLUBLE SMALL MOLECULE INHIBITORS OF THE CYSTIC FIBROSIS TRANSMEMBRANE CONDUCTANCE REGULATOR” (THE REGENTS OF THE UNIVERSITY OF CALIFORNIA, priority 2008, published 2011).
Like-named read-outs stand apart in the source and are kept apart here.

Molecular target: human wildtype CFTR (Homo sapiens, UniProt P13569)
Test: Fluorescence cell-based assay of CFTR inhibition (YFP iodide influx, FRT cells)
Set-up: expressed in transfected cells; host or cells: Fisher rat thyroid (FRT) cells
Conditions: for CFTR inhibitory activity (in words): structure-activity discussion
[1] = Table 1, upper part, CFTR inhibitory activity, given as ranges, read-out: IC50
[2] = Table 2 summary table, given as ranges, read-out: IC50
[3] = Tables 1 and 2, read-out: IC50 (CFTR inhibition)
[4] = Table 1, lower parts, given as ranges, read-out: IC50

Chain of human wildtype CFTR (P13569 whole entry): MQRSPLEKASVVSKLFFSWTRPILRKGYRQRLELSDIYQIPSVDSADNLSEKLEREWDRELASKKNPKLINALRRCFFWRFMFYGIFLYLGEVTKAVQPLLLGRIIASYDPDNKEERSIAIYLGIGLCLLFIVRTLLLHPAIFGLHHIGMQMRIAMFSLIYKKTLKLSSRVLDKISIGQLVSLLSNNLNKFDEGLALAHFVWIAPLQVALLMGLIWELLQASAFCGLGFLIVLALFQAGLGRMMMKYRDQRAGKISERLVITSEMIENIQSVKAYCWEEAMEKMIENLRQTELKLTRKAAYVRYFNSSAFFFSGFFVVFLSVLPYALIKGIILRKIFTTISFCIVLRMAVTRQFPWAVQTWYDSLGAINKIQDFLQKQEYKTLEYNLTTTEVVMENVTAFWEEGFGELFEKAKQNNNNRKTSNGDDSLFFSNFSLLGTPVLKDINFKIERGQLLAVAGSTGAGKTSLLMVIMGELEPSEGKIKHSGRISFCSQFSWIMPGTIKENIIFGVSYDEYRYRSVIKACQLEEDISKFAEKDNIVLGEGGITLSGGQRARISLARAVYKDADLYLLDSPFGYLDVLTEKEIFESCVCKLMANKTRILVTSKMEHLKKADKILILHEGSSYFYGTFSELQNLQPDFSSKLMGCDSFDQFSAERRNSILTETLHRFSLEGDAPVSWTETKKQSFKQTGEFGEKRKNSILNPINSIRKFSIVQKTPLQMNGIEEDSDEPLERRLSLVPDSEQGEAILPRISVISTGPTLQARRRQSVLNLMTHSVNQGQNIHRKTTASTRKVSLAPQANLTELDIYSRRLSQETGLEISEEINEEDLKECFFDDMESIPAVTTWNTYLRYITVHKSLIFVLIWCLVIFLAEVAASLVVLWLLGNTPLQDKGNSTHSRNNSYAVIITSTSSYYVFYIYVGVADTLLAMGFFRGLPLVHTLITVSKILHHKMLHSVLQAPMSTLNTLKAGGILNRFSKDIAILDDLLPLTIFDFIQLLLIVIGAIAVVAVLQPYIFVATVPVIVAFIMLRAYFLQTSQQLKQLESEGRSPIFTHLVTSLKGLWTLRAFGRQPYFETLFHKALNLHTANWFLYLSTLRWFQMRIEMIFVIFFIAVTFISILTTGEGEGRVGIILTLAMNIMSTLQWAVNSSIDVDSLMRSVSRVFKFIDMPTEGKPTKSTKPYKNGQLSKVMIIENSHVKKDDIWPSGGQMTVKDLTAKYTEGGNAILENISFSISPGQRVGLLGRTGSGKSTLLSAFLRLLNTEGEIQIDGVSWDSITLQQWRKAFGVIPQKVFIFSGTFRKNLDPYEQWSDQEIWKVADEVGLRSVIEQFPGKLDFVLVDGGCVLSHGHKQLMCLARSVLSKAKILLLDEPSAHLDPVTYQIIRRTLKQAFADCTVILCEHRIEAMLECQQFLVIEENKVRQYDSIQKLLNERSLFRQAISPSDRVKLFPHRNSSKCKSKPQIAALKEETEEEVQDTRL

Row | IC50 [1] [µM] | IC50 [2] [µM] | IC50 [3] [µM] | CFTR inhibitory activity (in words) | IC50 [4] [µM] | Structure (SMILES)
1 | 1 to 2 | 1 to 2 |  |  |  | O=C(O)c1cc(/C=C2\SC(=S)N(c3cccc(C(F)(F)F)c3)C2=O)ccc1O [Compound 7, (Z)-2-hydroxy-5-((4-oxo-2-thioxo-3-(3-(trifluoromethyl)phenyl)thiazolidin-5-ylidene)methyl)benzoic acid]
2 | 1 to 2 | 1 to 2 |  |  |  | O=C(O)c1ccc(/C=C2\SC(=S)N(c3ccc(F)c(C(F)(F)F)c3)C2=O)cc1 [Compound 8, (Z)-4-((3-(4-fluoro-3-(trifluoromethyl)phenyl)-4-oxo-2-thioxothiazolidin-5 ylidene)methyl)benzoic acid]
3 | 1 to 2 | 1 to 2 |  |  |  | O=C(O)c1cccc(/C=C2\SC(=S)N(c3cccc(C(F)(F)F)c3)C2=O)c1 [Compound 9, (Z)-3-((4-oxo-2-thioxo-3-(3-(trifluoromethyl)phenyl)thiazolidin-5-ylidene)methyl)benzoic acid]
4 | 2 to 3 | 2 to 3 | 2.6 |  |  | O=C(O)COc1ccc(/C=C2\SC(=S)N(c3cccc(C(F)(F)F)c3)C2=O)cc1 [Compound 10, (Z)-2-(4-((4-oxo-2-thioxo-3-(3-(trifluoromethyl)phenyl)thiazolidin-5-ylidene)methyl)phenoxy) acetic acid]
5 | 5 to 10 | 5 to 10 |  |  |  | O=C(O)c1cccc(/C=C2\SC(=S)N(c3ccc(F)c(C(F)(F)F)c3)C2=O)c1 [Compound 11, (Z)-3-((3-(4-fluoro-3-(trifluoromethyl)phenyl)-4-oxo-2-thioxothiazolidin-5-ylidene)methyl)benzoic acid]
6 | 5 to 10 | 5 to 10 |  |  |  | Cc1cccc(N2C(=O)/C(=C/c3ccc(C(=O)O)cc3)SC2=S)c1 [Compound 12, (Z)-4-((4-oxo-2-thioxo-3-m-tolylthiazolidin-5-ylidene)methyl)benzoic acid]
7 | 5 to 10 | 5 to 10 |  |  |  | Cc1cccc(N2C(=O)/C(=C/c3ccc(C(=O)O)cc3)SC2=S)c1C [Compound 13, (Z)-4-((3-(2,3-dimethylphenyl)-4-oxo-2-thioxothiazolidin-5-ylidene)methyl)benzoic acid]
8 | 7 to 9 | 7 to 9 |  |  |  | O=C(O)c1ccc(/C=C2\SC(=S)N(c3cccc(C(F)(F)F)c3)C2=O)c(O)c1 [Compound 16, (Z)-3-hydroxy-4-((4-oxo-2-thioxo-3-(3-(trifluoromethyl)phenyl)thiazolidin-5-ylidene)methyl)benzoic acid]
9 | 10 to 20 | 10 to 20 |  |  |  | O=C(O)c1ccc(/C=C2\SC(=S)N(c3ccccc3C(F)(F)F)C2=O)cc1 [Compound 20, (Z)-4-((4-oxo-2-thioxo-3-(2-(trifluoromethyl)phenyl)thiazolidin-5-ylidene)methyl)benzoic acid]
10 | 10 to 20 | 10 to 20 |  |  |  | O=C(O)c1cccc(/C=C2\SC(=S)N(c3ccc(C(F)(F)F)cc3)C2=O)c1 [Compound 21, (Z)-3-((4-oxo-2-thioxo-3-(4-(trifluoromethyl)phenyl)thiazolidin-5-ylidene)methyl)benzoic acid]
11 | 10 to 20 | 10 to 20 |  |  |  | O=C(O)c1ccc(/C=C2\SC(=S)N(c3cc(C(F)(F)F)cc(C(F)(F)F)c3)C2=O)cc1 [Compound 23, (Z)-4-((3-(3,5-bis(trifluoromethyl)phenyl)-4-oxo-2-thioxothiazolidin-5-ylidene)methyl)benzoic acid]
12 | 10 to 20 | 10 to 20 |  |  |  | O=C(O)c1ccc(/C=C2\SC(=S)N(c3ccc(Cl)c(C(F)(F)F)c3)C2=O)cc1 [Compound 24, (Z)-4-((3-(4-chloro-3-(trifluoromethyl)phenyl)-4-oxo-2-thioxothiazolidin-5-ylidene)methyl)benzoic acid]
13 | 10 to 20 | 10 to 20 |  |  |  | O=C(O)c1ccc(/C=C2\SC(=S)N(c3ccc(C(F)(F)F)cc3)C2=O)cc1 [Compound 25, (Z)-4-((4-oxo-2-thioxo-3-(4-(trifluoromethyl)phenyl)thiazolidin-5-ylidene)methyl)benzoic acid]
14 | 10 to 20 | 10 to 20 |  |  |  | O=C(O)c1ccccc1/C=C1\SC(=S)N(c2cccc(C(F)(F)F)c2)C1=O [Compound 26, (Z)-2-((4-oxo-2-thioxo-3-(3-(trifluoromethyl)phenyl)thiazolidin-5-ylidene)methyl)benzoic acid]
15 | 20 to 30 | 20 to 30 |  | low activity |  | O=C1/C(=C/c2ccc(O)cc2)SC(=S)N1c1cccc(C(F)(F)F)c1 [Compound 31, (Z)-5-(4-hydroxybenzylidene)-2-thioxo-3-(3-(trifluoromethyl)phenyl) thiazolidin-4-one]

The remaining lines, values behind:

Row | Structure (SMILES) | IC50 [1] [µM] | IC50 [2] [µM] | IC50 [3] [µM] | CFTR inhibitory activity (in words) | IC50 [4] [µM]
16 | O=C1/C(=C/c2cc(Br)c(O)c(Br)c2)SC(=S)N1c1cccc(C(F)(F)F)c1 [Compound 14, (Z)-5-(3,5-dibromo-4-hydroxybenzylidene)-2-thioxo-3-(3-(trifluoromethyl)phenyl) thiazolidin-4-one] | 5 to 10 | 5 to 10 |  | modest inhibition activity | 
17 | O=C1/C(=C/c2cc(O)c(O)c(O)c2)SC(=S)N1c1cccc(C(F)(F)F)c1 [Compound 19, (Z)-2-thioxo-3-(3-(trifluoromethyl)phenyl)-5-(3,4,5-trihydroxybenzylidene) thiazolidin-4-one] | 10 to 20 | 10 to 20 |  | low activity | 
18 | O=C(O)c1cc(/C=C2\SC(=S)N(c3ccccc3C(F)(F)F)C2=O)ccc1O [Compound 22, (Z)-2-hydroxy-5-((4-oxo-2-thioxo-3-(2-(trifluoromethyl)phenyl)thiazolidin-5-ylidene)methyl)benzoic acid] | 10 to 20 | 10 to 20 |  |  | 
19 | O=C(O)c1ccccc1/C=C1\SC(=S)N(c2ccccc2C(F)(F)F)C1=O [Compound 27, (Z)-2-((4-oxo-2-thioxo-3-(2-(trifluoromethyl)phenyl)thiazolidin-5-ylidene)methyl)benzoic acid] | 10 to 20 | 10 to 20 |  |  | 
20 | O=C(O)c1cccc(/C=C2\SC(=S)N(c3ccccc3C(F)(F)F)C2=O)c1 [Compound 28, (Z)-3-((4-oxo-2-thioxo-3-(2-(trifluoromethyl)phenyl)thiazolidin-5-ylidene)methyl)benzoic acid] | 10 to 20 | 10 to 20 |  |  | 
21 | O=C(O)c1ccccc1/C=C1\SC(=S)N(c2ccc(C(F)(F)F)cc2)C1=O [Compound 29, (Z)-2-((4-oxo-2-thioxo-3-(4-(trifluoromethyl)phenyl)thiazolidin-5-ylidene)methyl)benzoic acid] | 10 to 20 | 10 to 20 |  |  | 
22 | O=C(O)c1cc(/C=C2\SC(=S)N(c3ccc(C(F)(F)F)cc3)C2=O)ccc1O [Compound 32, (Z)-2-hydroxy-5-((4-oxo-2-thioxo-3-(4-(trifluoromethyl)phenyl)thiazolidin-5-ylidene)methyl)benzoic acid] | 20 to 30 | 20 to 30 |  |  | 
23 | O=C1/C(=C/c2ccncc2)SC(=S)N1c1cccc(C(F)(F)F)c1 [Compound 33, (Z)-5-(pyridin-4-ylmethylene)-2-thioxo-3-(3-(trifluoromethyl)phenyl) thiazolidin-4-one] |  | 20 to 30 | 20 to 30 | inactive | 
24 | O=C1/C(=C/c2ccc(O)c(O)c2O)SC(=S)N1c1cccc(C(F)(F)F)c1 [Compound 34, (Z)-2-thioxo-3-(3-(trifluoromethyl)phenyl)-5-(2,3,4-trihydroxybenzylidene) thiazolidin-4-one] | 20 to 30 | 20 to 30 |  | low activity | 
25 | O=C1/C(=C/c2ccc(S(=O)(=O)[O-])cc2)SC(=S)N1c1cccc(C(F)(F)F)c1.[Na+] [Compound 35, sodium (Z)-4-((4-oxo-2-thioxo-3-(3-(trifluoromethyl)phenyl)thiazolidin-5-ylidene)methyl) benzenesulfonate] | 20 to 30 | 20 to 30 |  | inactive | 
26 | O=C(O)COc1cccc(/C=C2\SC(=S)N(c3cccc(C(F)(F)F)c3)C2=O)c1 [Compound 36, (Z)-2-(3-((4-oxo-2-thioxo-3-(3-(trifluoromethyl)phenyl)thiazolidin-5-ylidene)methyl)phenoxy) acetic acid] | 20 to 30 | 20 to 30 |  |  | 
27 | O=C1S/C(=C\c2ccc(-c3nn[nH]n3)cc2)C(=O)N1c1cccc(C(F)(F)F)c1 [Compound 48, (Z)-5-(4-(1H-tetrazol-5-yl)benzylidene)-3-(3-(trifluoromethyl)phenyl) thiazolidine-2,4-dione] |  | 10 to 20 |  |  | 10 to 20
28 | O=C(O)c1ccc(SC2CC(=O)N(c3cccc(C(F)(F)F)c3)C2=O)cc1 (stereo not shown) [Compound 50, 4-(2,5-dioxo-1-(3-(trifluoromethyl)phenyl)pyrrolidin-3-ylthio)benzoic acid] |  | 5 to 10 | ~7 |  | 5 to 10
29 | O=C(O)c1ccc(NC(=S)C2SC(=S)N(c3cccc(C(F)(F)F)c3)C2=O)cc1 (stereo not shown) [Compound 51, 4-(4-oxo-2-thioxo-3-(3-(trifluoromethyl)phenyl)thiazolidine-5-carbothioamido)benzoic acid] |  | 5 to 10 |  |  | 5 to 10
30 | O=C(O)c1ccc(CC2SC(=S)N(c3cccc(C(F)(F)F)c3)C2=O)cc1 (stereo not shown) [Compound 56] |  |  |  | inactive | 
